Measurements from patent US7906655B2, “Hepatitis C virus inhibitors” (Bristol-Myers Squibb Company, priority 2008, dated 2011).

Test system: HCV 1b genotype
Assay: HCV Replicon assay (HCV-neo replicon cells, wild-type)
Assay type: cell-based
Details: HCV 1b genotype replicon
Outline: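 Inhibition was measured in HCV-neo (genotype 1b) replicon cells. Some assay versions used luciferase reporters.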

[1] = Hepatitis C virus, class symbols
[2] = Hepatitis C virus, numeric values

`CC(=O)N[C@@H](C(=O)N1CCC[C@H]1c1nc2cc(C#Cc3ccc4nc([C@@H]5CCCN5C(=O)[C@H](NC(C)=O)c5ccccc5)[nH]c4c3)ccc2[nH]1)c1ccccc1` [Example M21, N-((1R)-2-((2S)-2-(5-((2-((2S)-1-((2R)-2-acetamido-2-phenylacetyl)-2-pyrrolidinyl)-1H-benzimidazol-6-yl)ethynyl)-1H-benzimidazol-2-yl)-1-pyrrolidinyl)-2-oxo-1-phenylethyl)acetamide] was tested, and the EC50 [1] was less than 4.57 nM.

With `C[C@H](NC(=O)[C@@H](c1ccccc1)N(C)C)c1nc2c(-c3ncc(-c4ccc5[nH]c([C@@H]6CCCN6C(=O)[C@@H](c6ccccc6)N(C)C)nc5c4)o3)cccc2[nH]1` [Example J26, (2R)-2-(dimethyl-amino)-N-((1S)-1-(4-(5-(2-((2S)-1-((2R)-2-(dimethyl-amino)-2-phenylacetyl)-2-pyrrolidinyl)-1H-benzimidazol-5-yl)-1,3-oxazol-2-yl)-1H-benzimidazol-2-yl)ethyl)-2-phenyl-acetamide] the EC50 [2] was 0.021 nM.

In the case of `CC(=O)N1CCC[C@H]1c1nc2ccc(C#Cc3ccc4[nH]c([C@@H]5CCCN5C(=O)C5CC5)nc4c3)cc2[nH]1` [Example M54.30, 5-((2-((2S)-1-acetyl-2-pyrrolidinyl)-1H-benzimidazol-6-yl)ethynyl)-2-((2S)-1-(cyclopropyl-carbonyl)-2-pyrrolidinyl)-1H-benzimidazole], the EC50 [1] is reported as 100 to 999 nM.

`CC(=O)N[C@@H](C(=O)N1CCC[C@H]1c1nc2cc(-c3cnc(-c4cccc5[nH]c([C@@H]6CCCN6C(=O)[C@H](NC(C)=O)c6ccccc6)nc45)o3)ccc2[nH]1)c1ccccc1` [Example J12, N-((1R)-2-((2S)-2-(4-(5-(2-((2S)-1-((2R)-2-acetamido-2-phenylacetyl)-2-pyrrolidinyl)-1H-benzimidazol-5-yl)-1,3-oxazol-2-yl)-1H-benzimidazol-2-yl)-1-pyrrolidinyl)-2-oxo-1-phenylethyl) acetamide] gave an EC50 [1] of less than 4.57 nM.

With `CC(C)(C)O[C@@H]1C[C@@H](c2nc3cc(C#Cc4ccc5nc([C@@H]6C[C@@H](OC(C)(C)C)CN6C(=O)OCc6ccccc6)[nH]c5c4)ccc3[nH]2)N(C(=O)OCc2ccccc2)C1` [Example F10, benzyl (2S,4R)-2-(5-((2-((2S,4R)-1-((benzyloxy)carbonyl)-4-tert-butoxy-2-pyrrolidinyl)-1H-benzimidazol-6-yl)ethynyl)-1H-benzimidazol-2-yl)-4-tert-butoxy-1-pyrrolidinecarboxylate] the EC50 [1] was 4.57 to 99 nM.

`O=C(c1cccs1)N1CCC[C@H]1c1nc2cc(CCc3ccc4[nH]c([C@@H]5CCCN5C(=O)c5cccs5)nc4c3)ccc2[nH]1` [Example M45.1, 5,5′-(1,2-ethanediyl)bis(2-((2S)-1-(2-thienylcarbonyl)-2-pyrrolidinyl)-1H-benzimidazole)] gave an EC50 [1] of 100 to 999 nM.

`CN(C)CC(=O)N1CCC[C@H]1c1nc2c(-c3ncc(-c4ccc5[nH]c([C@@H]6CCCN6C(=O)[C@@H](c6ccccc6)N(C)C)nc5c4)o3)cccc2[nH]1` [Example J28, (1R)-2-((2S)-2-(5-(2-(2-((2S)-1-((dimethyl-amino)acetyl)-2-pyrrolidinyl)-1H-benzimidazol-4-yl)-1,3-oxazol-5-yl)-1H-benzimidazol-2-yl)-1-pyrrolidinyl)-N,N-dimethyl-2-oxo-1-phenyl-ethanamine] was tested, and the EC50 [1] was less than 4.57 nM.

Molecule `COc1ccc2ccc(C(=O)N3CCC[C@H]3c3nc4cc(C#Cc5ccc6[nH]c([C@@H]7CCCN7C(=O)c7ccc8ccc(OC)cc8n7)nc6c5)ccc4[nH]3)nc2c1` [Example M17, 2,2′-(1,2-ethynediylbis(1H-benzimidazole-5,2-diyl(2S)-2,1-pyrrolidinediylcarbonyl))bis(7-methoxyquinoline)] has an EC50 [2] of 20 nM.

`CCC(=O)N1CCC[C@H]1c1nc2ccc(C#Cc3ccc4[nH]c([C@@H]5CCCN5C(=O)[C@H]5CCCO5)nc4c3)cc2[nH]1` [Example M54.7, 5-((2-((2S)-1-propionyl-2-pyrrolidinyl)-1H-benzimidazol-6-yl)ethynyl)-2-((2S)-1-((2R)-tetrahydro-2-furanylcarbonyl)-2-pyrrolidinyl)-1H-benzimidazole] was tested, and the EC50 [1] was 4.57 to 99 nM.

For `CC(C)(C)OC(=O)C[C@H](NC(=O)OCc1ccccc1)c1nc2cc(CCc3ccc4nc([C@H](CC(=O)OC(C)(C)C)NC(=O)OCc5ccccc5)[nH]c4c3)ccc2[nH]1` [OL9, tert-butyl (3S)-3-(((benzyloxy)carbonyl)amino)-3-(5-(2-(2-((1S)-1-(((benzyloxy)carbonyl)amino)-3-tert-butoxy-3-oxopropyl)-1H-benzimidazol-6-yl)ethyl)-1H-benzimidazol-2-yl)propanoate], the EC50 [1] was 4.57 to 99 nM.

With `O=C(C1CCC1)N1CCC[C@H]1c1nc2ccc(C#Cc3ccc4[nH]c([C@@H]5CCCN5C(=O)[C@H]5CCCO5)nc4c3)cc2[nH]1` [Example M54.10, 5-((2-((2S)-1-(cyclobutyl-carbonyl)-2-pyrrolidinyl)-1H-benzimidazol-6-yl)ethynyl)-2-((2S)-1-((2R)-tetrahydro-2-furanylcarbonyl)-2-pyrrolidinyl)-1H-benzimidazole] the EC50 [1] was 4.57 to 99 nM.

Work on `O=C(c1ccncc1)N1CCN(C(=O)OCc2ccccc2)C(c2nc3cc(CCc4ccc5nc(C6CN(C(=O)c7ccncc7)CCN6C(=O)OCc6ccccc6)[nH]c5c4)ccc3[nH]2)C1` (stereo not shown) [OL13, benzyl 2-(5-(2-(2-(1-((benzyloxy)carbonyl)-4-isonicotinoyl-2-piperazinyl)-1H-benzimidazol-6-yl)ethyl)-1H-benzimidazol-2-yl)-4-isonicotinoyl-1-piperazinecarboxylate] yielded an EC50 [2] of 8560 nM.

With `COC(=O)N[C@@H](C)C(=O)N1[C@@H]2C[C@@H]2C[C@H]1c1nc2cc(Oc3cccc(-c4ccc5[nH]c([C@@H]6C[C@H]7C[C@H]7N6C(=O)[C@H](C)NC(=O)OC)nc5c4)c3)ccc2[nH]1` [Example V2, methyl ((1S)-2-((1R,3S,5R)-3-(5-(3-((2-((1R,3S,5R)-2-(N-(methoxycarbonyl)-L-alanyl)-2-azabicyclo[3.1.0]hex-3-yl)-1H-benzimidazol-5-yl)oxy)phenyl)-1H-benzimidazol-2-yl)-2-azabicyclo[3.1.0]hex-2-yl)-1-methyl-2-oxoethyl) carbamate] the EC50 (class symbols) was less than 4.57 nM.

With `C[C@@](O)(C(=O)N1CCC[C@H]1c1nc2cc(C#Cc3ccc4[nH]c([C@@H]5CCCN5C(=O)[C@@](C)(O)c5ccccc5)nc4c3)ccc2[nH]1)c1ccccc1` [Example M16] the EC50 (class symbols) was less than 4.57 nM.

`CC(C)(C)OC(=O)CC[C@H](NC(=O)OCc1ccccc1)c1nc2cc(CCc3ccc4nc([C@H](CCC(=O)OC(C)(C)C)NC(=O)OCc5ccccc5)[nH]c4c3)ccc2[nH]1` [OL10, tert-butyl (4S)-4-(((benzyloxy)carbonyl)amino)-4-(5-(2-(2-((1S)-1-(((benzyloxy)carbonyl)amino)-4-tert-butoxy-4-oxobutyl)-1H-benzimidazol-6-yl)ethyl)-1H-benzimidazol-2-yl)butanoate] was tested, and the EC50 [1] was 100 to 999 nM.

With `CC(=O)N[C@@H](C(=O)N1CCC[C@H]1c1nc2cc(-c3cnc(-c4ccc5nc([C@@H]6C[C@@H]7C[C@@H]7N6C(=O)[C@H](NC(C)=O)c6ccccc6)[nH]c5c4)o3)ccc2[nH]1)c1ccccc1` [Example J24, N-((1R)-2-((2S)-2-(5-(2-(2-((1S,3S,5S)-2-((2R)-2-acetamido-2-phenylacetyl)-2-azabicyclo[3. 1.0]hex-3-yl)-1H-benzimidazol-5-yl)-1,3-oxazol-5-yl)-1H-benzimidazol-2-yl)-1-pyrrolidinyl)-2-oxo-1-phenylethyl) acetamide] the EC50 [1] was less than 4.57 nM.

`CC(=O)N[C@@H](C(=O)N1CCC[C@H]1c1nc2cc(-c3cnc(-c4ccc5nc([C@@H]6CCCN6C(=O)[C@H](NC(C)=O)c6ccccc6)[nH]c5c4)o3)ccc2[nH]1)c1ccccc1` [Example J21, N-((1R)-2-((2S)-2-(5-(2-(2-((2S)-1-((2R)-2-acetamido-2-phenylacetyl)-2-pyrrolidinyl)-1H-benzimidazol-6-yl)-1,3-oxazol-5-yl)-1H-benzimidazol-2-yl)-1-pyrrolidinyl)-2-oxo-1-phenylethyl) acetamide] gave an EC50 [1] of less than 4.57 nM.

`CC(C)(C)O[C@@H]1C[C@@H](c2nc3cc(CCc4ccc5nc([C@@H]6C[C@@H](OC(C)(C)C)CN6C(=O)OCc6ccccc6)[nH]c5c4)ccc3[nH]2)N(C(=O)OCc2ccccc2)C1` [OL5, benzyl (2S,4R)-2-(5-(2-(2-((2S,4R)-1-((benzyloxy)carbonyl)-4-tert-butoxy-2-pyrrolidinyl)-1H-benzimidazol-6-yl)ethyl)-1H-benzimidazol-2-yl)-4-tert-butoxy-1-pyrrolidinecarboxylate] gave an EC50 [1] of 100 to 999 nM.

Molecule `CN1CCN(C(C(=O)N2CCC[C@H]2c2nc3cc(-c4cnc(-c5cccc6[nH]c([C@@H]7CCCN7C(=O)C(c7ccccc7)N7CCN(C)CC7)nc56)o4)ccc3[nH]2)c2ccccc2)CC1` (stereo partly drawn) [Example J14.1, 2-((2S)-1-((4-methyl-1-piperazinyl) (phenyl)acetyl)-2-pyrrolidinyl)-4-(5-(2-((2S)-1-((4-methyl-1-piperazinyl) (phenyl)acetyl)-2-pyrrolidinyl)-1H-benzimidazol-5-yl)-1,3-oxazol-2-yl)-1H-benzimidazole] has an EC50 [1] of 4.57 to 99 nM.

For `CO[C@@H]1C[C@@H](c2nc3cc(CCc4ccc5nc([C@@H]6C[C@@H](OC)CN6C(=O)OCc6ccccc6)[nH]c5c4)ccc3[nH]2)N(C(=O)OCc2ccccc2)C1` [Example F4, benzyl (2S,4R)-2-(5-(2-(2-((2S,4R)-1-((benzyloxy)carbonyl)-4-methoxy-2-pyrrolidinyl)-1H-benzimidazol-6-yl)ethyl)-1H-benzimidazol-2-yl)-4-methoxy-1-pyrrolidinecarboxylate], the EC50 [1] was less than 4.57 nM.

In the case of `O=C(Cc1ccccc1)N1CCC[C@H]1c1nc2cc(-c3cnc(-c4ccc5nc([C@@H]6CCCN6C(=O)Cc6ccccc6)[nH]c5c4)o3)ccc2[nH]1` [Example J16], the EC50 [1] is reported as 4.57 to 99 nM.

Molecule `COC(=O)NC(C(=O)N1[C@@H]2C[C@@H]2C[C@H]1c1nc2cc(Oc3cccc(-c4ccc5[nH]c([C@@H]6C[C@H]7C[C@H]7N6C(=O)C(NC(=O)OC)c6ccccc6)nc5c4)c3)ccc2[nH]1)c1ccccc1` (stereo partly drawn) [Example V5, methyl (2-((1R,3S,5R)-3-(5-(3-((2-((1R,3S,5R)-2-(((methoxycarobnyl)amino)phenyl)acetyl)-2-azabicyclo[3.1.0]hex-3-yl)-1H-benzimidazol-5-yl)oxy)phenyl)-1H-benzimidazol-2-yl)-2-azabicyclo[3.1.0]hex-2-yl)-2-oxo-1-phenylethyl) carbamate] has an EC50 (class symbols) of less than 4.57 nM.
